Measurements taken from patent US5574070A, “Substituted guanidines having high binding to the sigma receptor and the use thereof” (priority 1993, dated 1996).
“Also recorded” adds a separate entry of the source. Structures can show the parent of a compound that is named as a salt. Where two headings read alike, the source gives them in different places.

Tested on: sigma receptor
Test: [3H]DTG displacement radioligand binding assay, guinea pig brain membranes
[1] = Example 25, guinea pig brain membrane homogenates, read-out: IC50 binding values
[2] = list of especially preferred compounds, read-out: IC50 (high binding to the sigma receptor)
[3] = read-out: IC50 vs [3H]DTG, Table I, guinea pig brain membranes

Compound	in vitro [3H]DTG displacement activity	IC50 [1] [nM]	IC50 [2] [nM]	also measured
1,1-dimethyl-4-guanidine [reference compound]				displacement of [3H]DTG: no significant displacement
N=C(NC1CC2CCC1C2)NC1CC2CCC1C2 (racemic) [N,N'-di-((±)-endo-2-norbornyl)guanidine]	found to possess the aforesaid in vitro [^3 H]DTG displacement activity	16	16	
Cc1ccccc1NC(=N)N[C@@H]1C[C@@H]2CC[C@H]1C2 (relative stereo) [N-((±)-endo-2-norbornyl)-N'-(2-methylphenyl)guanidine]			6	
CC1(C)[C@H]2CC[C@]1(C)[C@@H](NC(=N)Nc1ccccc1I)C2 (relative stereo) [N-(exo-2-isobornyl)-N'-(o-iodophenyl)guanidine]	found to possess the aforesaid in vitro [^3 H]DTG displacement activity	18	18	
Cc1ccccc1NC(=N)N[C@H]1C[C@@H]2CC[C@@]1(C)C2(C)C (relative stereo) [N-(exo-2-isobornyl)-N'-(o-tolyl)guanidine]	found to possess the aforesaid in vitro [^3 H]DTG displacement activity	25	25	
N=C(Nc1ccccc1I)N[C@H]1C[C@@H]2CC[C@H]1C2 (relative stereo) [N-(exo-2-norbornyl)-N'-(2-iodophenyl)guanidine]			4	
C=CCN1CCC2(C)c3cc(O)ccc3CC1C2C (single isomer, unassigned; (+)) [(+)SKF 10,047, N-allyl-normetazocine, reference compound]				IC50 (read-out: IC50 vs. [3H]DTG): 625 ± 88 nM
CN(C)CCC=C1c2ccccc2CCc2ccccc21 [Amitriptyline, reference compound]				IC50 (read-out: IC50 vs. [3H]DTG, Table III, ± SEM, average from 2-4 separate experiments in triplicate): 300 ± 7 nM
N=C1Nc2ccccc2-c2ccccc2N1 [Bridge-DPG, 2-imino-1,3H-dibenzo[d,f]-[1,3]-diazepine]		> 10000		
CN(C)CCCN1c2ccccc2Sc2ccc(Cl)cc21 [Chlorpromazine, reference compound]				IC50 (read-out: IC50 binding values): 1480 ± 265 nM; IC50 (read-out: IC50 vs. [3H]DTG): 1480 nM
Clc1cccc(Cl)c1N=C1NCCN1 [Clonidine, reference compound]				IC50 (read-out: IC50 vs. [3H]DTG): > 10000 nM
CNC(=N)NC [DMG, N,N'-di(methyl)guanidine, reference compound]		> 10000		
Cc1cccc(C)c1NC(=N)Nc1c(C)cccc1C [DXG, N,N'-di-(2,6-dimethylphenyl)guanidine]	found to possess the aforesaid in vitro [^3 H]DTG displacement activity	90 ± 18	90	IC50 [3]: 90 ± 18 nM
Cc1cc(Br)ccc1NC(=N)Nc1ccc(Br)cc1C [Example 4-Br--DTG, N,N'-Di-(4-bromo-2-methylphenyl)guanidine]	found to possess the aforesaid in vitro [^3 H]DTG displacement activity	37	37	IC50 [3]: 37 ± 3 nM
O=C(CCCN1CCC(O)(c2ccc(Cl)cc2)CC1)c1ccc(F)cc1 [Haloperidol, reference compound]				affinity for / displacement at the [3H]DTG binding site: all specific binding is displaceable by haloperidol; also recorded: highest displacement potency of all drugs tested
CN(C)CCCN1c2ccccc2CCc2ccccc21 [Imipramine, reference compound]				IC50 (read-out: IC50 vs. [3H]DTG): 520 ± 14 nM
CCc1cccc(N2CCN(c3cccc(CC)c3)C2=N)c1 [N,N'-Bis (3-ethylphenyl)-2-imino-imidazolidine]			70	
N=C(NC1CCCCC1)NC1CCCCC1 [N,N'-di(cyclohexyl)guanidine]	found to possess the aforesaid in vitro [^3 H]DTG displacement activity	71	71	IC50 [3]: 71 ± 7 nM
Cc1cc(I)ccc1NC(=N)Nc1ccc(I)cc1C [N,N'-di-(2-methyl-4-iodophenyl)guanidine]	found to possess the aforesaid in vitro [^3 H]DTG displacement activity			
N=C(NC1CC2CCC1C2)NC1CC2CCC1C2 (stereo not drawn) [N,N'-di-(exo-2-norbornyl)guanidine]	found to possess the aforesaid in vitro [^3 H]DTG displacement activity	22	22	
CCCCNC(=N)NCCCC [N,N'-di-n-butyl-guanidine]	found to possess the aforesaid in vitro [^3 H]DTG displacement activity			IC50 [3]: 750 ± 33 nM
N=C(NCc1ccccc1)NCc1ccccc1 [N,N'-dibenzylguanidine]	found to possess the aforesaid in vitro [^3 H]DTG displacement activity	90	90	
N=C(Nc1ccccc1[N+](=O)[O-])NC12CC3CC(CC(C3)C1)C2 [N-(1-adamantyl)-N'-(o-nitrophenyl)guanidine]	found to possess the aforesaid in vitro [^3 H]DTG displacement activity	30	30	
Cc1ccccc1NC(=N)Nc1c(C)cccc1C [N-(2,6-dimethylphenyl)-N'-(2-methylphenyl)-guanidine]	found to possess the aforesaid in vitro [^3 H]DTG displacement activity	70	70	IC50 [3]: 70 ± 3 nM

Compound	in vitro [3H]DTG displacement activity	IC50 [1] [nM]	IC50 [2] [nM]	also measured
Cc1ccccc1NC(=N)Nc1ccc(N=[N+]=[N-])cc1C [N-(2-Methyl-4-azido-phenyl)-N'-(2-methylphenyl)guanidine]	found to possess the aforesaid in vitro [^3 H]DTG displacement activity		20	IC50 [3]: 20 ± 1 nM
Cc1ccccc1NC(=N)Nc1ccc([N+](=O)[O-])cc1C [N-(2-Methyl-4-nitrophenyl)-N'-(2-methyl-phenyl)guanidine]	found to possess the aforesaid in vitro [^3 H]DTG displacement activity	37	37	IC50 [3]: 37 ± 5 nM
Cc1ccccc1NC(=N)Nc1ccccc1I [N-(2-iodophenyl)-N'-(2-methylphenyl)-guanidine]	found to possess the aforesaid in vitro [^3 H]DTG displacement activity	21	21	IC50 [3]: 21 ± 1 nM
CC12CC3CC(C)(C1)CC(NC(=N)Nc1ccccc1I)(C3)C2 [N-(3,5-dimethyl-1-adamantanyl)-N'-(o-iodophenyl)guanidine]	found to possess the aforesaid in vitro [^3 H]DTG displacement activity	16	16	
Cc1ccccc1NC(=N)NC12CC3CC(C)(CC(C)(C3)C1)C2 [N-(3,5-dimethyladamantan-1-yl)-N'-(o-tolyl)guanidine]	found to possess the aforesaid in vitro [^3 H]DTG displacement activity	15	15	
Cc1ccccc1N(C)C(=N)NC12CC3CC(CC(C3)C1)C2 [N-(Adamantan-1-yl)-N'-(2-methylphenyl)-N'-methyl-guanidine]			22.6	IC50 (read-out: IC50 vs [3H]DTG, Table II, ± s.e.m. (n)): 22.6 nM
CC(C)c1ccccc1NC(=N)NC12CC3CC(CC(C3)C1)C2 [N-(adamant-1-yl)-N'-(o-isopropylphenyl)guanidine]	found to possess the aforesaid in vitro [^3 H]DTG displacement activity	24	24	
Cc1cc(Br)ccc1NC(=N)NC12CC3CC(CC(C3)C1)C2 [N-(adamant-1-yl)-N'-(p-bromo-o-tolyl)guanidine]	found to possess the aforesaid in vitro [^3 H]DTG displacement activity		2.7	
N=C(Nc1ccccc1I)NC1C2CC3CC(C2)CC1C3 (centres unmarked) [N-(adamant-2-yl)-N'-(2-iodophenyl)guanidine]		5.2	3.5	
Cc1ccccc1NC(=N)NC1C2CC3CC(C2)CC1C3 (centres unmarked) [N-(adamant-2-yl)-N'-(2-methylphenyl)guanidine]			7	
N=C(Nc1ccc(I)cc1)NC1C2CC3CC(C2)CC1C3 (centres unmarked) [N-(adamant-2-yl)-N'-(p-iodophenyl)guanidine]	found to possess the aforesaid in vitro [^3 H]DTG displacement activity	2.7		
CC(C)(C)NC(=N)Nc1ccccc1I [N-(o-iodophenyl)-N'-(t-butyl)guanidine]	found to possess the aforesaid in vitro [^3 H]DTG displacement activity	20	20	
Cc1ccccc1NC(=N)Nc1ccc(N)cc1C [NH2 --DTG, N-(2-Methyl-4-aminophenyl)-N'-(2-methylphenyl)-guanidine hydrochloride]		280 ± 20		IC50 [3]: 280 ± 14 nM
CNCCC=C1c2ccccc2CCc2ccccc21 [Nortriptyline, reference compound]				IC50 (read-out: IC50 vs. [3H]DTG): 2000 nM
CN(C)CCCN1c2ccccc2Sc2ccc(C(F)(F)F)cc21 [Trifluopromazine, reference compound]				IC50 (read-out: IC50 vs. [3H]DTG): 605 ± 67 nM
CN1CCc2cccc3c2[C@H]1Cc1ccc(O)c(O)c1-3 [apomorphine, reference compound]				displacement of [3H]DTG (10 uM): no significant displacement
N=C(N)NCCC(=O)O [beta-guanidino propionic acid, reference compound]				displacement of [3H]DTG (10 uM): no significant displacement
CN1CCc2cc3c(cc2[C@H]1[C@@H]1OC(=O)c2c1ccc1c2OCO1)OCO3 [bicuculline, reference compound]				displacement of [3H]DTG (10 uM): no significant displacement
CN/C(=N/CCSCc1nc[nH]c1C)NC#N [cimetidine, reference compound]				displacement of [3H]DTG: no significant displacement
CN(CC(=O)O)C(=N)N [creatine, reference compound]				displacement of [3H]DTG (10 uM): no significant displacement
CN1CC(=O)NC1=N [creatinine, reference compound]				displacement of [3H]DTG (10 uM): no significant displacement
N=C(N)NCCCC(=O)O [gamma-guanidino butyric acid, reference compound]				displacement of [3H]DTG (10 uM): no significant displacement
N=C(N)NCC(=O)O [guanidino acetic acid, reference compound]				displacement of [3H]DTG (10 uM): no significant displacement
C[N+](C)(C)CCCCCC[N+](C)(C)C [hexamethonium, reference compound]				displacement of [3H]DTG (10 uM): no significant displacement
